Experimental data reported in the NIST ThermoML archive (doi:10.1016/j.jct.2019.06.018).
± gives the expanded uncertainty stated by the source.

What was measured:
[1] = Molar enthalpy of transition or fusion; conditions: Crystal; DSC
[2] = Crystal; DSC

Molar enthalpy of transition or fusion [1]: 7.08 ± 0.956 kcal/mol
Triple point temperature [2]: 400.15 ± 1.2 K
Compound: CC1=NN(c2ccccc2)C(=O)C1 [Edaravone]
